# “And” between values parts separate entries of the source, which are not always exact repeats. Identical values can stand only once. Like-named read-outs stand apart in the source and are kept apart here.
# Key:
# [1] = target: T1, CpdB_Ndom (N-terminal domain of CpdB) (Escherichia coli, UniProt P08331, D305N/I97V/M87I); format: biochemical; settings: for K M / k cat / k cat /K M: CpdB_Ndom, substance is the substrate, mean ± SD of three experiments; for Activity of CpdB_Ndom on substrate (hydrolytic rate): fixed 750 µM substrate concentration
# T1 construct: GST (N, cleaved yes); made in house; host or cells: E. coli BL21
# Procedure: With all the detectably hydrolyzed substrates, saturation kinetics was studied and parameters kcat and KM were determined from Michaelis-Menten plots (Table 1).
# The same assay was used with 2′,3′- or 3′,5′-cyclic nucleotides, CDP-choline and bis-4-NPP except that an excess of alkaline phosphatase was included in the reaction mixture as auxiliary enzyme.
# Datasets obtained with different substrates in the absence of inhibitors were used to derive kcat and KM values by adjusting the Michaelis-Menten equation to the experimental points by non-linear regression.
# His^117Ala-CpdB = target: T2, His^117Ala-CpdB (Escherichia coli, UniProt P08331, D305N/H117A/I514V/I97V/M87I/N471D/S472N); format: biochemical
# T2 construct: A structural model of mature CpdB (aa 20–647) was built; GST (N, cleaved yes); made in house; host or cells: E. coli BL21
# Source text: (§1) The role of the possible catalytic and substrate-binding sites was additionally tested by the preparation of two point mutants of the mature CpdB protein. On the one hand, the mutation His^117Ala modified the histidine residue conserved in the N domain (Figure 1b) with respect to UshA, where it has been proposed to be part of the catalytic core structure and to act as a general base that facilitates the nucleophilic attack by deprotonating a water molecule, and to participate in the stabilization of the transition state. […] On the other hand, mutation Tyr^544Ala modified one of the aromatic residues of CpdB which are conserved in the C domain with respect to the UshA phenylalanine residues that form a stacked sandwich with the adenine ring of the substrate.
# Tyr^544Ala-CpdB [2] = target: T3, Tyr^544Ala-CpdB (Escherichia coli, UniProt P08331, D305N/I514V/I97V/M87I/N471D/S472N/Y544A); format: biochemical; settings: Tyr^544Ala-CpdB; substance is the substrate
# T3 construct: A structural model of mature CpdB (aa 20–647) was built; GST (N, cleaved yes); made in house; host or cells: E. coli BL21
# Source text: as §1
# Tyr^544Ala-CpdB [3] = format: biochemical, Escherichia coli; settings: Tyr^544Ala-CpdB versus wild-type mature CpdB
# Source text: as §1
# CpdB_Ndom [4] = target: T4, CpdB_Ndom (Escherichia coli, UniProt P08331, D305N/I97V/M87I); assay: biochemical; settings: CpdB_Ndom; substrate bis-4-NPP; global fit, complete competitive inhibition (Figure 7); read-out: Inhibition constant (Ki)
# T4 construct: GST (N, cleaved yes); made in house; host or cells: E. coli BL21
# Procedure: Substrate saturation experiments were run in the absence and the presence of one of these inhibitors at fixed concentrations (Figure 7).
# (§2) Reaction mixtures of 100 µL contained, besides the needed amount of enzyme (i.e., 0.02–0.05 µg/mL of mature CpdB, 2 µg/mL of a CpdB point mutant, or 0.2 µg/mL of CpdB_Ndom), 50 mM Tris [Tris(hydroxymethyl)aminomethane]-HCl pH 7.5 (adjusted at 37 °C), 2 mM MnCl2, 0.1 mg/mL bovine serum albumin, and the indicated concentrations of bis-4-NPP and the compound tested as inhibitor. Incubations performed at 37 °C were stopped by addition of 0.5 mL of 200 mM Tris, pH 8.9, 5 mM EDTA (ethylenediaminetetraacetate), immediately followed by A405 measurement (ε = 18.1 mM^−1 cm^−1). This termination procedure was used instead of the addition of a high NaOH concentration, to avoid the known formation of brown precipitates of air-oxidized Mn^2+ hydroxide. On occasions, when a higher sensitivity was needed, reaction mixtures of 500 µL were implemented and termination was performed with 0.1 mL 1M Tris, pH 8.9, 30 mM EDTA.
# CpdB_Ndom [5] = target: T4, CpdB_Ndom; format: biochemical; settings: CpdB_Ndom; for IC50: 750 µM bis-4-NPP as the substrate, single illustrative experiments; for Ki: substrate bis-4-NPP, estimated from inhibitor dose-response curves (Figure 6), read-out: Inhibition constant (Ki)
# Mature CpdB [6] = target: T5, Mature CpdB (Escherichia coli, UniProt P08331); assay: biochemical; format: biochemical; set-up: A structural model of mature CpdB (aa 20–647) was built; GST (N, cleaved yes); made in house; host or cells: E. coli BL21; settings: mature CpdB; for IC50: 750 µM bis-4-NPP as the substrate, single illustrative experiments, read-out: IC50; for Ki: substrate bis-4-NPP, global fit, mixed partial inhibition (Figure 5), values without SD are single experiments, read-out: Inhibition constant (Ki)
# Procedure: as §2
# Mature CpdB [7] = target: T5, Mature CpdB; set-up: A structural model of mature CpdB (aa 20–647) was built; GST (N, cleaved yes); made in house; host or cells: E. coli BL21; settings: substance is the substrate; cited from earlier work
# Mature CpdB [8] = target: T5, Mature CpdB; settings: for Ki: read-out: Inhibition constant (Ki), mature CpdB, substrate 3′-AMP, global fit, mixed partial inhibition (Figure 5)
# Source text: In this approach, inhibitors were used as probes for the relevance of those enzyme sites, irrespective of the physiological character and concentrations of the compounds used.
# The procedures and detailed conditions to measure the initial rates of phosphohydrolytic reactions were as earlier described [4]. […] The same assay was used with 2′,3′- or 3′,5′-cyclic nucleotides, CDP-choline and bis-4-NPP except that an excess of alkaline phosphatase was included in the reaction mixture as auxiliary enzyme.
# The procedures followed to derive kinetic parameters kcat, KM and Ki from initial rate vs. substrate concentration datasets, either in the presence or the absence of inhibitor, were as described elsewhere [49]. Datasets obtained with different substrates in the absence of inhibitors were used to derive kcat and KM values by adjusting the Michaelis-Menten equation to the experimental points by non-linear regression. […] Each one of these equations was simultaneously adjusted (global fit) by nonlinear regression to the three saturation curves of each inhibition experiment, using the Solver function of Microsoft Excel. During the adjustments, Vmax, KM and Ki were left to fluctuate. […] In each set of experiments, the type of inhibition that gave the best fit was used as the model to estimate Ki values.
# [9] = His^117Ala-CpdB, substance is the substrate
# T3 sequence (P08331 20-647 M87I/I97V/D305N/N471D/S472N/I514V/Y544A): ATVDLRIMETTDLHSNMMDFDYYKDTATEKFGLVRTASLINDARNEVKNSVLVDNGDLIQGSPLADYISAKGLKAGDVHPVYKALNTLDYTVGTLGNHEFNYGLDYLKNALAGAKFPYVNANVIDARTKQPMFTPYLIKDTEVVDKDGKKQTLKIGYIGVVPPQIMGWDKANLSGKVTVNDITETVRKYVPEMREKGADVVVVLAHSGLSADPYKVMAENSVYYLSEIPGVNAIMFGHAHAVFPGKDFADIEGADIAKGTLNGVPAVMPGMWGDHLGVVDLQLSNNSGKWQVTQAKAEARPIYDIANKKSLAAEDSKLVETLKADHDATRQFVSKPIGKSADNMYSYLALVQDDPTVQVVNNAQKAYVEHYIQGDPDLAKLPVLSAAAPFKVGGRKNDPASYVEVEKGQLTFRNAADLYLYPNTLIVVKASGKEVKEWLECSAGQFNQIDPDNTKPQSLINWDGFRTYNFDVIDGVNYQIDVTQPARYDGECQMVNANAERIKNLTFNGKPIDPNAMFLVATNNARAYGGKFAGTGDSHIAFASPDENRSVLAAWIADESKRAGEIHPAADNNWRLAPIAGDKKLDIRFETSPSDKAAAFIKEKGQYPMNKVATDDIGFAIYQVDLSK
# T1 sequence (P08331 20-354 M87I/I97V/D305N): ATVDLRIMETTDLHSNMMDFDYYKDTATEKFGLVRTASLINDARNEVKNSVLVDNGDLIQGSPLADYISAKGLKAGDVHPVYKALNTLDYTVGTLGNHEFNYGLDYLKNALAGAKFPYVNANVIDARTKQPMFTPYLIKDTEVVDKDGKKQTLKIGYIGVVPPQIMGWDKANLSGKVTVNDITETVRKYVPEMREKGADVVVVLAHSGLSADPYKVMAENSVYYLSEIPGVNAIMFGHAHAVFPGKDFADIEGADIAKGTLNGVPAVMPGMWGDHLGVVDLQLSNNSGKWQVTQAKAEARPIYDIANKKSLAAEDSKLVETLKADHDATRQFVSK
# T4 sequence (P08331 20-354 M87I/I97V/D305N): as above
# T5 sequence (P08331 20-647): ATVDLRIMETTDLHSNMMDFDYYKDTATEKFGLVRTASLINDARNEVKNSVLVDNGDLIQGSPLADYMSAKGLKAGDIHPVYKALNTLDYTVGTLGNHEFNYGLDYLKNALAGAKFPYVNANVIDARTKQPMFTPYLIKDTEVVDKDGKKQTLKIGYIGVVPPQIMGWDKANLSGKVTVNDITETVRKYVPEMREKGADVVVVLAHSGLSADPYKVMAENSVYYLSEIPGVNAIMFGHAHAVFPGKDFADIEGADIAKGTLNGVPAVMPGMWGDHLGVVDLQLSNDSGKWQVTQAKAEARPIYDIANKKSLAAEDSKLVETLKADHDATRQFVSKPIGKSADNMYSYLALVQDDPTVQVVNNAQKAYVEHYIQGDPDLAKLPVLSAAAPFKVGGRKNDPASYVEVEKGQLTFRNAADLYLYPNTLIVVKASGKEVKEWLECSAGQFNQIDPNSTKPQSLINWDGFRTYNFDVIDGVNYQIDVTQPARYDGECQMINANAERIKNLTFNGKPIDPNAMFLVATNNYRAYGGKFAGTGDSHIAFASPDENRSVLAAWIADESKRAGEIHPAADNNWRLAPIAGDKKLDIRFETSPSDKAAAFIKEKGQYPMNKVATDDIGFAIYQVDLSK
# T2 sequence (P08331 20-647 M87I/I97V/H117A/D305N/N471D/S472N/I514V): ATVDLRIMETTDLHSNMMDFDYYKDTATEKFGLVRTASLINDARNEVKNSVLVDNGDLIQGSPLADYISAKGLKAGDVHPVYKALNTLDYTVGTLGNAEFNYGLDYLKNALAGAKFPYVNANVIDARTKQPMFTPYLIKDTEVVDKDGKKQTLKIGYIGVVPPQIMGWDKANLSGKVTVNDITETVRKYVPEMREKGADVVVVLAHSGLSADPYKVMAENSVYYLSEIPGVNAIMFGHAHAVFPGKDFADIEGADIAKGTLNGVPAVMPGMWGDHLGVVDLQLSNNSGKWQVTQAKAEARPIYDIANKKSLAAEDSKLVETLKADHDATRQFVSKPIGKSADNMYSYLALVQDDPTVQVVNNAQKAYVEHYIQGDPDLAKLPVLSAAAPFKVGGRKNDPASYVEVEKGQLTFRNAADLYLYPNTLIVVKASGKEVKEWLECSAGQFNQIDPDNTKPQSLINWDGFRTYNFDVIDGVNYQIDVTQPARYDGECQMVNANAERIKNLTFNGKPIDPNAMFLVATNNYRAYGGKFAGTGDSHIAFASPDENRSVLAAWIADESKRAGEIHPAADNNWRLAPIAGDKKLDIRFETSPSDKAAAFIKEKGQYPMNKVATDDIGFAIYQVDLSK
Compound,K M [1],k cat [1],k cat /K M [1],IC50 (Mature CpdB [6]),Ki (Mature CpdB [6]),K M (Mature CpdB [7]),k cat (Mature CpdB [7]),k cat /K M (catalytic efficiency) (Mature CpdB [7]),also measured
Nc1ncnc2c1ncn2[C@@H]1O[C@H](CO)[C@@H](OP(=O)(O)O)[C@H]1O [3′-AMP],880 ± 250 µM,0.004 ± 0.0002 s⁻¹,5 M⁻¹ s⁻¹ and 5.2 ± 1.0 M⁻¹ s⁻¹,54 µM,3.6 ± 0.2 µM,14 µM,176 s⁻¹,,"Stronger loss of catalytic efficiency than on 2′,3′-cAMP caused by the deletion of the C domain ([1]; CpdB_Ndom versus mature CpdB): 10^5 fold; Activity of CpdB_Ndom on substrate (hydrolytic rate) [1]: almost complete loss of activities; Activity of His^117Ala-CpdB on substrate (His^117Ala-CpdB): essentially inactive; K M (Tyr^544Ala-CpdB [2]): 850 ± 110 µM; k cat (Tyr^544Ala-CpdB [2]): 160 ± 37 s⁻¹; KM increase by the Tyr^544Ala mutation (Tyr^544Ala-CpdB [3]): 60 fold; Ki (CpdB_Ndom [4]): 3300 ± 550 µM; IC50 (CpdB_Ndom [5]): 4100 µM"
"Nc1ccn([C@@H]2O[C@H](CO)[C@H]3OP(=O)(O)O[C@H]32)c(=O)n1 [2′,3′-cCMP]",180 ± 50 µM,33 ± 5 s⁻¹,"200,000 ± 80,000 M^−1 s^−1",,,12 µM,100 s⁻¹,"8,500,000 M^−1 s^−1",
Nc1ncnc2c1ncn2[C@@H]1O[C@H](COP(=O)(O)OP(=O)(O)O)[C@@H](O)[C@H]1O [ADP],,,,1100 µM,60 µM,,,,
"Nc1nc2c(ncn2[C@@H]2O[C@H](CO)[C@H]3OP(=O)(O)O[C@H]32)c(=O)[nH]1 [2′,3′-cGMP]",570 ± 160 µM,58 ± 16 s⁻¹,"100,000 ± 13,000 M^−1 s^−1",,,25 µM,84 s⁻¹,"3,500,000 M^−1 s^−1",
C[N+](C)(C)CCOP(=O)(O)OP(=O)([O-])OC[C@H]1O[C@@H](n2ccc(N)nc2=O)[C@H](O)[C@@H]1O [CDP-choline],2900 ± 1700 µM,5.7 ± 3.5 s⁻¹,1950 ± 130 M⁻¹ s⁻¹,,,219 µM,0.51 s⁻¹,2300 M⁻¹ s⁻¹,
"O=c1ccn([C@@H]2O[C@H](CO)[C@H]3OP(=O)(O)O[C@H]32)c(=O)[nH]1 [2′,3′-cUMP]",630 ± 170 µM,155 ± 32 s⁻¹,"250,000 ± 50,000 M^−1 s^−1",,,62 µM,260 s⁻¹,"4,200,000 M^−1 s^−1",
Nc1ncnc2c1ncn2[C@@H]1O[C@H](COP(=O)(O)O)[C@@H](O)[C@H]1O [5′-AMP],,,,110 µM,14 µM,,,,Activity of CpdB_Ndom on substrate (hydrolytic rate) [1]: absence of detectable activity; Ki (CpdB_Ndom [4]): 370 ± 50 µM; IC50 (Mature CpdB [8]): 900 µM; Ki (Mature CpdB [8]): 20 ± 8 µM; IC50 (CpdB_Ndom [5]): 560 µM
"O=[N+]([O-])c1ccc(OP(=O)(O)Oc2ccc([N+](=O)[O-])cc2)cc1 [bis-4-NPP, bis-4-nitrophenylphosphate]",1300 ± 80 µM,164 ± 14 s⁻¹,"130,000 ± 7000 M^−1 s^−1",,,96 µM,340 s⁻¹,"3.6 × 10^6 M^−1 s^−1 and 3,600,000 M^−1 s^−1","Catalytic efficiency (kcat/KM) lower than wild-type mature CpdB (His^117Ala-CpdB; His^117Ala-CpdB versus wild-type mature CpdB, same substrate): 60 fold; K M (His^117Ala-CpdB; [9]): 440 ± 90 µM; k cat (His^117Ala-CpdB; [9]): 26 ± 3 s⁻¹; k cat /K M (His^117Ala-CpdB; [9]): 60,000 ± 7000 M^−1 s^−1; K M (Tyr^544Ala-CpdB [2]): 430 ± 30 µM; k cat (Tyr^544Ala-CpdB [2]): 130 ± 34 s⁻¹; k cat /K M (Tyr^544Ala-CpdB [2]): 300,000 ± 100,000 M^−1 s^−1; KM increase by the Tyr^544Ala mutation (Tyr^544Ala-CpdB [3]): five-fold"
Nc1ncnc2c1ncn2[C@@H]1O[C@H](COP(=O)(O)OP(=O)(O)OP(=O)(O)O)[C@@H](O)[C@H]1O [ATP],,,,720 µM,113 ± 19 µM,,,,IC50 (CpdB_Ndom [5]): 8700 µM; Ki (CpdB_Ndom [5]): 5700 µM
"Nc1ncnc2c1ncn2[C@@H]1O[C@H](COP(=O)(O)O[C@H]2[C@@H](O)[C@H](n3cnc4c(N)ncnc43)O[C@@H]2COP(=O)(O)O)[C@@H](O)[C@H]1O [pApA, 5′-phosphoadenylyl-3′→5′-adenosine]",230 ± 40 µM,0.0004 ± 0.0001 s⁻¹,1.8 ± 0.2 M⁻¹ s⁻¹,,,0.6 µM,1.30 s⁻¹,"2,300,000 M^−1 s^−1",Stronger loss of catalytic efficiency than on c-di-AMP caused by the deletion of the C domain ([1]; CpdB_Ndom versus mature CpdB): 100 fold
"Nc1ncnc2c1ncn2[C@@H]1O[C@@H]2COP(=O)(O)O[C@H]2[C@H]1O [3′,5′-cAMP]",6900 ± 2600 µM,,,,,4600 µM,,,
Nc1ncnc2c1ncn2[C@@H]1O[C@H](CO)[C@@H](O)[C@H]1OP(=O)(O)O [2′-AMP],,,,100 µM,8.8 ± 2 µM,,,,Activity of CpdB_Ndom on substrate (hydrolytic rate) [1]: absence of detectable activity; IC50 (Mature CpdB [8]): 320 µM; Ki (Mature CpdB [8]): 7.1 ± 3.2 µM; IC50 (CpdB_Ndom [5]): 920 µM; Ki (CpdB_Ndom [5]): 600 µM
"Nc1ncnc2c1ncn2[C@@H]1O[C@@H]2COP(=O)(O)O[C@H]3[C@@H](O)[C@H](n4cnc5c(N)ncnc54)O[C@@H]3COP(=O)(O)O[C@H]2[C@H]1O [c-di-AMP, 3′,5′-cyclic diadenosine monophosphate]",3400 ± 2200 µM,0.012 ± 0.007 s⁻¹,3.5 ± 0.1 M⁻¹ s⁻¹,,,15 µM,0.40 s⁻¹,"29,000 M^−1 s^−1",
"Nc1nc2c(ncn2[C@@H]2O[C@@H]3COP(=O)(O)O[C@H]4[C@@H](O)[C@H](n5cnc6c(=O)[nH]c(N)nc65)O[C@@H]4COP(=O)(O)O[C@H]3[C@H]2O)c(=O)[nH]1 [c-di-GMP, 3′,5′-cyclic diguanosine monophosphate]",250 ± 30 µM,0.0003 ± 0.0001 s⁻¹,1.2 ± 0.4 M⁻¹ s⁻¹,,,6 µM,0.07 s⁻¹,"13,000 M^−1 s^−1",

# Reference: paper PMC7922932, “Molecular Dissection of Escherichia coli CpdB: Roles of the N Domain in Catalysis and Phosphate Inhibition, and of the C Domain in Substrate Specificity and Adenosine Inhibition” (International Journal of Molecular Sciences, 2021)
